PMC10330721, “Chemo-enzymatic synthesis and biological activity evaluation of propenylbenzene derivatives” (Frontiers in Microbiology, 2023)
In brackets after ≈: the same amount, converted by molar mass. Like-named read-outs stand apart in the source and are kept apart here.

Columns and labels:
[1] = tested on: C. albicans 38; assay: Fungistatic activity assay, broth microdilution; format: cell-based, Candida albicans
Method: (§1) Fungistatic activity was determined using Candida albicans ATCC 90028 from the American Type Culture Collection (ATCC, Manassas, VA, United States), and clinical isolates, C. albicans 636/20, C. albicans 595/20, and C. albicans 38 obtained from Wrocław Medical University, Wrocław, Poland.
(§2) All compounds were tested for biological activity against C. albicans ATTC 90028, C. albicans 636/20, C. albicans 595/20, and C. albicans 38 using the broth microdilution method. YPD medium (20 g glucose, 20 g Bacto Peptone, 10 g yeast extract, and 1 L of distilled water, pH 6.5) was used for the tests. The compound solutions were prepared in DMSO and diluted in YPD to obtain final concentrations in the range of 10–250 μg/mL. One hundred microlitres of each solution was pipetted into the wells of a 96-well microtiter plate. The inoculum was standardized to 0.5 McFarland standard and then diluted to obtain a final suspension with a cell density of 0.5–2.5 × 10^3 CFU/mL. The inoculum size was 100 μL. The positive control comprised DMSO added in the same concentration as the tested compounds in the inoculum, whereas the negative control consisted of DMSO diluted in the broth without the addition of inoculum. The microtiter plates were incubated in a Biosan PST-60 HL Plate Shaker-Thermostat (Riga, Latvia) at 35°C under shaking at 1,000 rpm for 24 h.

[2] = tested on: RBCs membrane; assay: Fluorescence spectroscopy of the RBCs membrane (DPH probe anisotropy); format: cell-based, human; settings: for Change in DPH anisotropy / RBCs membrane fluidity (in words): RBCs, 20, 60 and 100 μM; for Fluorescence anisotropy of the DPH probe: membranes of RBCs, 37 °C
Method: Using the DPH probe, the anisotropy values of cell membranes of RBCs modified with the test compounds were measured. RBCs for this analysis were prepared according to the method described in subsection 2.5.3. Then, the DPH probe was added to RBCs with a haematocrit of 0.2%. The final concentration of the probe in the sample was 1.3 μM. The mixture was incubated protected from light at 37°C for 30 min. Then, the compounds dissolved in ethanol were added. The compounds were tested at 20, 60, and 100 μM concentrations. Samples with compounds and control samples with alcohol of the appropriate concentration were incubated at 37°C for 1 h. Measurements in triplicate were made in quartz cuvettes using a CARY Eclipse fluorimeter (Varian, San Diego, CA, United States) at 37°C. The excitation wavelength for the DPH probe is λexc = 360 nm and the emission wavelength is λem = 426 nm.

[3] = Haemolytic activity assay; format: cell-based; settings: human red blood cells (RBCs) from healthy donors, 37°C, read-out: Percentage of haemolysis
Method: This test is based on comparison of the cytotoxicity of all tested compounds in human red blood cells (RBCs) with that in a control group. RBCs for this method were obtained from a blood center from examined and healthy donors. The compounds were tested at 10, 20, 40, 60, 80, and 100 μM concentrations. The control sample contained only ethanol in the same volume as the test samples. […] The samples were incubated at 37°C for 1 h. Then, the absorbance at 540 nm was measured using a UV–Vis spectrophotometer (Specord 40, Analytik Jena, Jena, Germany). The haemolytic activity of the compounds was determined as the ratio of the absorbance of haemoglobin in the test samples to that in completely haemolyzed cells multiplied by 100%.

[4] = tested on: MG63 cells; assay: Resazurin-based viability assay; format: cell-based, human; settings: for Effect on MG63 proliferation / viability (in words): 24 h, 1, 50 and 200 μg/mL
Method: (§3) HepG2 cells were cultured in Dulbecco’s modified Eagle’s Medium - low glucose (Merck) supplemented with 10% foetal bovine serum (FBS) (Merck). Caco-2 cells were cultured in Dulbecco’s modified Eagle’s medium - high glucose (Merck) supplemented with 10% FBS, 2% HEPES buffer (Thermo Fisher Scientific, Warszawa, Poland), 1% Penicillin–Streptomycin-Amphotericin B Solution (100×, Merck), 1% MEM solution (100×, Thermo Fisher Scientific), and 1% Gentamycin Solution (10 mg/mL, Merck). MG-63 cells were cultured in Minimum Essential Medium (Merck) supplemented with 10% FBS. All cells were cultured in an atmosphere of 5% CO2 at 37°C.
The tested compounds were dissolved in ethanol at 10 mg/mL. The concentrations were then adjusted to 1, 50, and 200 μg/mL in culture medium. Four controls were prepared: no ethanol added, and 0.01, 0.5, and 2% EtOH. The cells were treated with the compounds for 24 h. […] The culture medium was replaced with medium containing 10% resazurin dye. The cells were incubated at 37°C in an atmosphere of 5% CO2 for 2 h. Absorbance levels were measured spectrophotometrically (Epoch) at a wavelengths of 600 nm for resazurin and 690 nm as a reference.

[5] = tested on: HepG2 cells; assay: Resazurin-based viability assay; format: cell-based, human
Method: as §3, with “The human HepG2 and Caco-2 cell lines were obtained from the American Type Culture Collection (HB-8065™ and HTB-37™) and the MG-63 cell line was obtained from the European Collection of Authenticated Cell Cultures (Merck, Poznań, Poland). HepG2” for “HepG2”
(§4) HepG2, Caco-2, and […] were seeded in 96-well plates at 20,000 cells per well, and MG-63 cells at 10,000 cells per well, as described previously ([Marycz et al., 2012]; [Kornicka et al., 2017]). The tested compounds were dissolved in ethanol at 10 mg/mL. The concentrations were then adjusted to 1, 50, and 200 μg/mL in culture medium. Four controls were prepared: no ethanol added, and 0.01, 0.5, and 2% EtOH. The cells were treated with the compounds for 24 h. Then, cell viability was evaluated using the resazurin-based assay kit (TOX8), as described previously ([Grzesiak et al., 2011]; [Marycz et al., 2018]). The culture medium was replaced with medium containing 10% resazurin dye. The cells were incubated at 37°C in an atmosphere of 5% CO2 for 2 h. Absorbance levels were measured spectrophotometrically (Epoch) at a wavelengths of 600 nm for resazurin and 690 nm as a reference.

[6] = tested on: Caco-2 cells; assay: Resazurin-based viability assay; format: cell-based, human
Method: as §3, with “The human HepG2 and Caco-2 cell lines were obtained from the American Type Culture Collection (HB-8065™ and HTB-37™) and the MG-63 cell line was obtained from the European Collection of Authenticated Cell Cultures (Merck, Poznań, Poland). HepG2” for “HepG2”
as §4

[7] = tested on: human colon carcinoma Caco-2 cell line; settings: ref Lea et al., 2016; Padhy et al., 2022; cited from earlier work
[8] = tested on: human hepatocellular carcinoma HepG2 cells; design: method as in Yoo et al., 2005; Song et al., 2014, 2020; settings: ref Yoo et al., 2005; Song et al., 2014, 2020; cited from earlier work
[9] = tested on: C. albicans 595/20; assay: Fungistatic activity assay, broth microdilution; format: cell-based; settings: Candida albicans, 595/20, 24 h
Method: as §1, §2

[10] = tested on: C. albicans 636/20; assay: Fungistatic activity assay, broth microdilution; format: cell-based; settings: Candida albicans, 636/20, 24 h
Method: as §1, §2

[11] = tested on: C. albicans strains; assay: Fungistatic activity assay, broth microdilution, values given over several strains; format: cell-based, Candida albicans; settings: Candida albicans, read-out: MIC50 (over three strains)
Method: as §1, §2

[12] = tested on: C. albicans ATTC 90028; assay: Fungistatic activity assay, broth microdilution; format: cell-based; settings: Candida albicans, ATTC90028, 24 h
Method: as §1, §2

| SMILES | Change in DPH anisotropy / RBCs membrane fluidity (in words) [2] | Fluorescence anisotropy of the DPH probe ([2]; 20 µM) | Fluorescence anisotropy of the DPH probe ([2]; 60 µM) | Fluorescence anisotropy of the DPH probe ([2]; 100 µM) | hemolysis at 1 h, 10 µM [3] [%] | hemolysis at 1 h, 20 µM [3] [%] | hemolysis at 1 h, 40 µM [3] [%] | hemolysis at 1 h, 60 µM [3] [%] | hemolysis at 1 h, 80 µM [3] [%] | hemolysis at 1 h, 100 µM [3] [%] | Effect on MG63 proliferation / viability (in words) [4] | MIC50 [10] [µg/mL] | MIC50 ([1]; Candida albicans, 38, 24 h) [µg/mL] | MIC50 [12] [µg/mL] | other results |
| --- | --- | --- | --- | --- | --- | --- | --- | --- | --- | --- | --- | --- | --- | --- | --- |
| COc1ccc(C(=O)C(C)O)cc1 (stereo not shown) [3c, 2-hydroxy-1-(4-methoxyphenyl)propan-1-one] | a decrease in anisotropy | 0.239 ± 0.006 | 0.249 ± 0.007 | 0.244 ± 0.003 | 1.83 ± 0.355 | 1.65 ± 0.509 | 1.73 ± 0.174 | 2.33 ± 0.436 | 2.15 ± 0.161 | 1.53 ± 0.134 | promoted MGC63 proliferation | – | – | – | MIC50 ([1]; Candida albicans, C. albicans 38, 24 h, 35°C, tested 10–250 μg/mL, read-out: MIC50): 61 µg/mL (≈ 339 µM); Effect on MG63 proliferative activity / viability (in words) ([4]; 24 h, 50 μg/mL): induced the proliferative activity; Effect on HepG2 proliferative activity (in words) ([5]; 24 h, 50 μg/mL): induced the proliferative activity; Effect on Caco-2 proliferative activity (in words) ([6]; 24 h, 50 μg/mL): induced the proliferative activity |
| C=CCc1ccc(O)c(OC)c1 [eugenol] | – | – | – | – | – | – | – | – | – | – | – | – | – | – | Apoptosis in Caco-2 cell line (in words) [7]: induced apoptosis; Effect on growth of HepG2 cells (in words) [8]: inhibited the growth |
| CC(O)C(O)c1ccc2c(c1)OCO2 (stereo not shown) [1b, 1-(1,3-benzodioxol-5-yl)propane-1,2-diol] | – | 0.247 ± 0.018 | 0.274 ± 0.036 | 0.252 ± 0.012 | 2.28 ± 0.251 | 1.86 ± 0.293 | 1.98 ± 0.272 | 1.88 ± 0.251 | 2.39 ± 0.349 | 2.58 ± 0.321 | – | 177 (≈ 902 µM) | – | – | MIC50 [9]: 107 µg/mL (≈ 545 µM); Effect on Caco-2 proliferation / viability (in words) ([6]; 24 h, 1, 50 and 200 μg/mL): strongest inhibition |
| CC(O)C(=O)c1ccc2c(c1)OCO2 (stereo not shown) [1c, 1-(1,3-benzodioxol-5-yl)-2-hydroxypropan-1-one] | – | 0.260 ± 0.011 | 0.267 ± 0.019 | 0.277 ± 0.078 | 1.46 ± 0.08 | 1.17 ± 0.02 | 1.81 ± 0.302 | 1.85 ± 0.027 | 1.41 ± 0.295 | 1.51 ± 0.576 | suppressed the proliferation | > 250 | – | – | MIC50 [11]: 178 to 200 µg/mL (≈ 917 to 1030 µM) |
| CC(O)C(=O)c1ccccc1 (stereo not shown) [2c, 2-hydroxy-1-phenylpropan-1-one] | a decrease in anisotropy | 0.236 ± 0.026 | 0.240 ± 0.019 | 0.238 ± 0.002 | 1.16 ± 0.027 | 1.86 ± 0.697 | 1.42 ± 0.55 | 1.74 ± 0.59 | 1.94 ± 0.154 | 2.46 ± 0.322 | promoted MGC63 proliferation | – | > 250 | > 250 | – |
| CC=Cc1ccccc1 [2a, prop-1-en-1-yl benzene] | – | 0.262 ± 0.020 | 0.268 ± 0.023 | 0.267± 0.006 | – | – | – | – | – | – | promoted MGC63 proliferation | – | > 250 | > 250 | Effect on HepG2 proliferation / viability (in words) ([5]; 24 h, 1, 50 and 200 μg/mL): more strongly significantly suppressed the viability |
